In patent US12102615B2 (THE TEXAS A&M UNIVERSITY SYSTEM, priority 2018, dated 2024):
Numbered stars: 1 amine (or outer) side, 2 acyl side, 3 side chain; on linkers, the order of the positions; unused ones are H or OH. Square brackets hold non-standard residues; d marks the D form. Peptide text beside a SMILES is read from it. dTyr(βR-OH) = N[C@@H](C(=O)O)[C@H](O)c1ccc(O)cc1; X1 = CCCCCCCCCCCCNCC[C@H](CC(=O)[*:2])N[*:1]; Asn(3S-OH) = NC(=O)[C@@H](O)[C@H](N)C(=O)O; dDab = NCC[C@@H](N)C(=O)O

What was measured:
[1] = system: S. cerevisiae DGY6 haploid BY4741; format: cell-based; conditions: Saccharomyces cerevisiae DGY6 haploid BY4741; 24 hours, 35° C.
Experimental: (§1) MIC assays were performed in duplicate as previously described following a modified version of the CLSI M27-A3 methods.
(§2) Minimum inhibitory concentration (MIC) susceptibility testing was performed following a modified version, as previously reported, of the CLSI M27-A3 methods for the susceptibility testing of yeasts. Incubation temperature was 35° C. and the inoculum size was 0.5-2.5×10^3 colony-forming units (CFU)/mL for yeasts. MICs were performed to determine the bioactivity of each new OF-Δxyl analogue (Table 3).

[2] = system: Candida albicans ATCC 3147; format: cell-based; conditions: 24 hours, 35° C., listed as dihydrosphingosine
Experimental: as §1, §2

F-actin [3] = biological target: T1, F-actin (Oryctolagus cuniculus, UniProt P68135); assay: Pyrene labeled actin depolymerization assay; format: biochemical; parameters: purchased Cytoskeleton, Inc. (Denver, CO) BK003; conditions: 5 μM
Experimental: (§3) Actin polymerization and depolymerization assays were performed using the Actin polymerization biochem kit (#BK003; Cytoskeleton, Inc. Denver, CO) following the manufacturer's instructions with some modifications. Briefly, for the polymerization assay, G-actin stock solution was made at 0.2 mg/mL instead of 0.4 mg/mL. For the depolymerization assay, F-actin stock solution was diluted 9-fold instead of 5-fold. […] The experiments were done in duplicate.

actin = biological target: T2, actin (Oryctolagus cuniculus, UniProt P68135); assay: Pyrene labeled actin polymerization assay; format: biochemical; conditions: 5 μM; approximately one hour after incubation in the polymerization buffer
T2 construct: purchased Cytoskeleton, Inc. (Denver, CO) BK003
Experimental: as §3

F-actin [4] = biological target: T1, F-actin; assay: Actin co-sedimentation assay; format: binding, rabbit; parameters: Purified rabbit skeletal muscle filamentous actin (AKF99); purchased Cytoskeleton Inc. (Denver, CO) AKF99; host or cells: rabbit skeletal muscle
[5] = system: Candida glabrata ATCC 2001; assay: Minimum inhibitory concentration (MIC) assay, modified CLSI M27-A3; format: cell-based; conditions: 24 hours, 35° C.
Experimental: as §1, §2

| SMILES | MIC [1] [µg/mL] | MIC [2] [µg/mL] | effect on polymerization or depolymerization of actin (F-actin [3]) | pyrene fluorescent reading following incubation in depolymerization buffer (F-actin [3]; no drug control at 2,500 AU) | pyrene fluorescence reading, plateau in polymerization buffer (actin) | Kd (F-actin [4]) [nM] | fold lower saturation of binding ratio than native occidiofungin (F-actin [4]; versus native occidiofungin) [fold] | MIC [5] [µg/mL] | fold lower binding affinity to actin than native compound (F-actin [4]; versus native occidiofungin) [fold] |
| --- | --- | --- | --- | --- | --- | --- | --- | --- | --- |
| CCCCCCCCCCCCCCCC(O)C(CO)NCC[C@@H]1CC(=O)N[C@H](CO)C(=O)N[C@H]([C@H](O)c2ccc(O)cc2)C(=O)N[C@H](CCN)C(=O)NCC(=O)N[C@@H](CC(N)=O)C(=O)N[C@@H](CO)C(=O)N[C@@H]([C@H](O)C(N)=O)C(=O)N1 (mixture of isomers) | 2 | 16 | did not interfere with polymerization or depolymerization of actin | 2,500 AU | ~21,000 AU | 25 | 13.5 | 8 |  |
| CCCCCCCCCCCCNCC[C@@H]1CC(=O)N[C@H](CO)C(=O)N[C@H]([C@H](O)c2ccc(O)cc2)C(=O)N[C@H](CCN)C(=O)NCC(=O)N[C@@H](CC(N)=O)C(=O)N[C@@H](CO)C(=O)N[C@@H]([C@H](O)C(N)=O)C(=O)N1 [Dodecylamine containing OF-Δxyl analogue] (cyclo(GNS[Asn(3S-OH)][X1][dS][dTyr(βR-OH)][dDab])) | >4 |  |  |  |  | 4200 |  |  | ~4 |
